Read-outs that look alike come from different tables or passages of the source.
Experiments:
RT112 cells = test: Luminescent Viability Assay (LVA, FGFR3); format: cell-based; details: Homo sapiens, RT-112, 72 h, 3 days, CellTiter-Glo
In short: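 RT112 bladder cells grown in RPMI with 10% FBS were exposed to a compound concentration range for 3 days. Viability read by CellTiter-Glo luminescence; IC50 fitted from percent inhibition versus log concentration.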

FGFR1 (UP) = FGFR1 (UP) (Homo sapiens (Human), UniProt P11362); test: FGFR Enzymatic Assay, FGFR1 un-phosphorylated
FGFR1 (UP), sequence (P11362 22-822): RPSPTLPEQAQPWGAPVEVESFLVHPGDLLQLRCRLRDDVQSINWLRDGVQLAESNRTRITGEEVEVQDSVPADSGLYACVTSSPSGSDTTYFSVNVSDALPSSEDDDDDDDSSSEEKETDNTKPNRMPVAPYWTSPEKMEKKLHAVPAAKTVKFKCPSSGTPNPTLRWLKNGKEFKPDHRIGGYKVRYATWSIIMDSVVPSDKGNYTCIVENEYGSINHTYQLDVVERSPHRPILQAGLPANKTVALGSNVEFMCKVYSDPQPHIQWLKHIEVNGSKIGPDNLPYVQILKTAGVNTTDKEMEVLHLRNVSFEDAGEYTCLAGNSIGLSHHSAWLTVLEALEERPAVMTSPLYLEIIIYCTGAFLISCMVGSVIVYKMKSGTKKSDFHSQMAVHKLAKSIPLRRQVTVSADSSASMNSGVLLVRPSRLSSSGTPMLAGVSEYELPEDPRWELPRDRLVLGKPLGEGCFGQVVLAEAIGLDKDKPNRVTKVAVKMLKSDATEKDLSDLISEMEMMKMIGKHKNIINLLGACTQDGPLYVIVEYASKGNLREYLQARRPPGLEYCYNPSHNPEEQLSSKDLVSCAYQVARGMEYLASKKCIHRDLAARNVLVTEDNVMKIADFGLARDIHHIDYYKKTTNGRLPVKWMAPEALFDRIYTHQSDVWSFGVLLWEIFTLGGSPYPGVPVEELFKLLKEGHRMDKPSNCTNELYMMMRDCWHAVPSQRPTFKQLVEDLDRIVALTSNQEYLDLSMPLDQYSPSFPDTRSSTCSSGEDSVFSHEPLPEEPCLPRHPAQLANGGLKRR
Procedure: (§2) The inhibitor potency of the exemplified compounds was determined in an enzyme discontinuous assay that measures peptide phosphorylation using FRET measurements to detect product formation. Inhibitors were serially diluted in DMSO and a volume of 0.2 μL was transferred to the wells of a 384-well plate. For the isoforms of FGFR (−1, −2, −3 wild-type and mutant isoforms, −4) including phosphorylated (P) and un-phosphorylated (UP) proteins, a 5 μL/well volume of enzyme diluted in assay buffer (50 mM HEPES, 10 mM MgCl2, 1 mM EGTA, 0.01% Tween-20, 5 mM DTT, pH 7.5) was added to the plate and pre-incubated with inhibitor for 5 to 15 minutes at ambient temperature. Appropriate controls (enzyme blank and enzyme with no inhibitor) were included on the plate. The reaction was initiated by the addition of a 5 μL/well volume containing both biotinylated [sequence] […] The plate was allowed to equilibrate for −10 minutes at ambient temperature before scanning on a PheraStar plate reader (BMG Labtech) instrument.
(§3) Either GraphPad prism or XLfit was used to analyze the data. The IC50 values were derived by fitting the data to a four parameter logistic equation producing a sigmoidal dose-response curve with a variable Hill coefficient. Prism equation: Y=Bottom+(Top−Bottom)/(1+10^((LogIC50−X)*Hill slope)); XLfit equation: Y=(A+((B−A)/(1+((X/C)^D)))) where X is the logarithm of inhibitor concentration and Y is the response.

FGFR2 = FGFR2 (Homo sapiens, UniProt P21802); test: pFGFR2 Functional Cell HTRF Assay (KATOIII cells); format: cell-based
FGFR2, sequence (P21802 22-821 limits assumed): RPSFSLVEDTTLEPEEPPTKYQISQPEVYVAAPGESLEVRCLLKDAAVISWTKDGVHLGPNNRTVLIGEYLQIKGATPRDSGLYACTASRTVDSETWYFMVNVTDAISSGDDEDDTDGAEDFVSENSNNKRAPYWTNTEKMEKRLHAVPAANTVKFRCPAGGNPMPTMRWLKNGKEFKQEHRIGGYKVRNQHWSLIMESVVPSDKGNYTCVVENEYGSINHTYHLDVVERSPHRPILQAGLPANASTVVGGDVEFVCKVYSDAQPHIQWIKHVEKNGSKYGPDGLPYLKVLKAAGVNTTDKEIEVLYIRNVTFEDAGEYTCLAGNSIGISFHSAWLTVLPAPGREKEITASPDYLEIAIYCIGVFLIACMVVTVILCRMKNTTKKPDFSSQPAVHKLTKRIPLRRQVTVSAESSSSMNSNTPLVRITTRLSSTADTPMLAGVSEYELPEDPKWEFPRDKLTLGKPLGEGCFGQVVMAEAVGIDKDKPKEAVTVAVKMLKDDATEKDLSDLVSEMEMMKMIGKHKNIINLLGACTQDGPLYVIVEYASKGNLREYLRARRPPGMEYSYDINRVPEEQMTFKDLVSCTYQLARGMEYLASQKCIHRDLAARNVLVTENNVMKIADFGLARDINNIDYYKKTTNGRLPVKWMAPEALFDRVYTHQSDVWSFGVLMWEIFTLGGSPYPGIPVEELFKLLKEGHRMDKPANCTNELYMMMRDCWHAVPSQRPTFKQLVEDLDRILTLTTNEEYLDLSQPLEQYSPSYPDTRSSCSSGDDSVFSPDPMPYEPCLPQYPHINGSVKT
Procedure: To measure phosphorylated Fibroblast Growth Factor Receptor 2 (FGFR2), KATOIII cells (Human Gastric Carcinoma) were purchased from ATCC and maintained in Iscove's with 20% FBS (Gibco/Life Technologies). For the pFGFR2 assay, KATOIII cells were plated overnight in 5% FBS and Iscove's medium at 5×10^4 cells/well into Corning 96-well flat-bottom tissue culture treated plates. The next morning, 50 μl of fresh media with 0.5% FBS was incubated in the presence or absence of a concentration range of test compounds also at 50 μl, for 1 hour at 37° C., 5% CO2. Cell were washed with PBS, and lysed with Cell Signaling Lysis Buffer with standard Protease inhibitors for 45 min at room temperature. 4 μl total of Cis Bio Anti […] together were added to the lysate and mixed well (following directions of the kit). 16 μl was then transferred to 384 well Greiner white plates and stored at 4° C. overnight in the dark. Plates were read on the Pherastar plate reader at 665 nm and 620 nm wavelengths. IC50 determination was performed by fitting the curve of inhibitor percent inhibition versus the log of the inhibitor concentration using the GraphPad Prism 5.0 software. […] NT=Not tested.

FGFR3 = FGFR3 (Homo sapiens, UniProt P22607); test: pFGFR3 Functional Cell HTRF Assay (BAF3-TEL-FGFR3 cells); format: cell-based; details: 2 hours
FGFR3, sequence (P22607 23-806 limits assumed): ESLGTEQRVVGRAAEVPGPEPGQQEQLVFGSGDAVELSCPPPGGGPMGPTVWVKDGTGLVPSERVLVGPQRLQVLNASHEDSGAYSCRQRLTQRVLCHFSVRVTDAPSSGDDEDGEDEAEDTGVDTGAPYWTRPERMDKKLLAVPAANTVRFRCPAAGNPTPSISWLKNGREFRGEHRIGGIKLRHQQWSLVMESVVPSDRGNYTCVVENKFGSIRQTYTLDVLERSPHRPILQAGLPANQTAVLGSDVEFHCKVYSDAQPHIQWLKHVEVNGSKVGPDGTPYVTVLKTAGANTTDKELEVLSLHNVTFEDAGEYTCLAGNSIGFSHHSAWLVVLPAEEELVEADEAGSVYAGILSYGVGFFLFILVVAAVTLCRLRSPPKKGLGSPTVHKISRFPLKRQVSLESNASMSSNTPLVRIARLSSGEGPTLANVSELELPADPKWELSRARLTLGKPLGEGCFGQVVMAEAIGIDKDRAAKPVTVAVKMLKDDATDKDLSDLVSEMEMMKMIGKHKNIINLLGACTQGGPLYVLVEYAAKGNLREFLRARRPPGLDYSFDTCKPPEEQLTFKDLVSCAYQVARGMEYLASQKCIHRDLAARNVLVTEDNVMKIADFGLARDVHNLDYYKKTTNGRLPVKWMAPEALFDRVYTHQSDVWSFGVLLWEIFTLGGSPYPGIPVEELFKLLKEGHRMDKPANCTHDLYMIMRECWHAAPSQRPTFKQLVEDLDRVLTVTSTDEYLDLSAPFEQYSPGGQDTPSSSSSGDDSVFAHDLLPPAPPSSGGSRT
Procedure: (§1) To measure phosphorylated Fibroblast Growth Factor Receptor 1 and 3 (FGF1 and FGFR3), in house stable cell lines BAF3-TEL-FGFR1 or BAF3-TEL-FGFR3 were maintained in RPMI with 10% FBS and 1 μg/ml puromycin (Gibco/Life Technologies). […] The plates were gently shaken (100 rpm) for 2 minutes at room temperature to mix well and incubated for 2 hours in a single layer at 37° C., 5% CO2. 4 μl/well of 1/25 dilution of lysis buffer #3 (Cis Bio) was added with standard Protease inhibitors and shaken at 200 rpm at room temperature for 20 minutes. 4 μl total of the Cis Bio Tb-pFGFR Ab (10 ng) and d2-FGFR3 (1 ng) together were added to the lysate and mixed well. Plates were sealed and incubated at room temperature overnight in the dark. […] IC50 determination was performed by fitting the curve of inhibitor percent inhibition versus the log of the inhibitor concentration using the GraphPad Prism 5.0 software.

ALK2 (aa 147-end) = ALK2 (aa 147-end) (Homo sapiens (Human), UniProt Q04771); test: ALK2 HTRF Assay; format: biochemical
ALK2 (aa 147-end), sequence (Q04771 147-509): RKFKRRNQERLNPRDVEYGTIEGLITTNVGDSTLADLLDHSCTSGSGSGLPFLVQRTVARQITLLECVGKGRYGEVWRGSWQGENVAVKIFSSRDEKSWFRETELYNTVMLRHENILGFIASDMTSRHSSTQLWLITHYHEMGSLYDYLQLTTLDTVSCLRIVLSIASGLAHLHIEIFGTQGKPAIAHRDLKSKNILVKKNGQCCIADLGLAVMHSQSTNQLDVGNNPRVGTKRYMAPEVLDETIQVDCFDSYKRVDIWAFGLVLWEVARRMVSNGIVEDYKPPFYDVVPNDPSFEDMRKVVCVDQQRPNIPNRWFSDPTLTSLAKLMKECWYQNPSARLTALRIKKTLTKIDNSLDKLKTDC

FGFR2 (P) = FGFR2 (P) (Homo sapiens (Human), UniProt P21802); test: FGFR Enzymatic Assay, FGFR2 phosphorylated; details: read-out: FGFR2 (P) IC50; phosphorylated enzyme, ATP near or below Km
FGFR2 (P), sequence (P21802 22-821): as the sequence (P21802 22-821 limits assumed) above
Procedure: as §2, §3

FGFR3 (UP) = FGFR3 (UP) (Homo sapiens (Human), UniProt P22607); test: FGFR Enzymatic Assay, FGFR3 un-phosphorylated; details: read-out: FGFR3 (UP) IC50; un-phosphorylated enzyme, ATP near or below Km
FGFR3 (UP), sequence (P22607 23-806): as the sequence (P22607 23-806 limits assumed) above
Procedure: as §2, §3

FGFR2 (UP) = FGFR2 (UP) (Homo sapiens (Human), UniProt P21802); test: FGFR Enzymatic Assay, FGFR2 un-phosphorylated; details: read-out: FGFR2 (UP) IC50; un-phosphorylated enzyme, ATP near or below Km
FGFR2 (UP), sequence (P21802 22-821): as the sequence (P21802 22-821 limits assumed) above
Procedure: as §2, §3

FGFR1 = FGFR1 (Homo sapiens, UniProt P11362); test: pFGFR1 Functional Cell HTRF Assay (BAF3-TEL-FGFR1 cells); format: cell-based
FGFR1, sequence (P11362 22-822 limits assumed): as the sequence (P11362 22-822) above
Procedure: as §1

ALK2 mutant DIPG cell = details: ALK2 mutant DIPG cells; cited from earlier work
[1] = read-out: FGFR1 (UP) IC50, un-phosphorylated enzyme, ATP near or below Km
[2] = 1 hour, read-out: FGFR2 HTRF IC50
[3] = read-out: ALK2 100 μM IC50, 100 uM ATP
[4] = BAF3-TEL-FGFR1 cells, 2 hours, read-out: FGFR1 HTRF IC50

SMILES | IC50 (RT112 cells) [µM] | IC50 (FGFR1 (UP); [1]) [µM] | IC50 (FGFR2; [2]) [µM] | IC50 (FGFR3) [µM] | IC50 (ALK2 (aa 147-end); ALK2 3 μM IC50, 3 uM ATP) [µM] | IC50 (ALK2 (aa 147-end); ALK2 100 μM IC50, 100 uM ATP) [µM] | IC50 (FGFR2 (P)) [µM] | IC50 (FGFR3 (UP)) [µM] | IC50 (FGFR2 (UP)) [µM] | IC50 (ALK2 (aa 147-end); [3]) [µM] | IC50 (FGFR1 (UP)) [µM] | IC50 (FGFR1) [µM] | IC50 (FGFR1; [4]) [µM] | inhibition of ALK2 mutant DIPG cell viability (ALK2 mutant DIPG cell) | IC50 (FGFR2; read-out: FGFR2 HTRF IC50, 1 hour) [µM]
Cc1cc(-n2cc(-c3n[nH]c4cnc(N5C6CCC5C(=O)N(C)C6)nc34)cn2)ccn1 (centres unmarked) [Example 71, 3-Methyl-8-(3-(1-(2-methylpyridin-4-yl)-1H-pyrazol-4-yl)-1H-pyrazolo[4,3-d]pyrimidin-5-yl)-3,8-diazabicyclo[3.2.1]octan-2-one] | < 0.1 | < 0.1 | < 0.1 | < 0.1 | 0.5 to 2 | 0.5 to 2 | < 0.1 | < 0.1 |  |  |  |  |  |  | 
CN1CC2CCC(C1=O)N2c1ncc2[nH]nc(-c3cnn(-c4ccncc4)c3)c2n1 (centres unmarked) [Example 68, 3-Methyl-8-(3-(1-(pyridin-4-yl)-1H-pyrazol-4-yl)-1H-pyrazolo[4,3-d]pyrimidin-5-yl)-3,8-diazabicyclo[3.2.1]octan-2-one] | 0.1 to 0.5 | < 0.1 | < 0.1 | < 0.1 | 0.5 to 2 |  | < 0.1 | < 0.1 | < 0.1 | > 2 |  |  |  |  | 
CCN1CC2CCC(C1=O)N2c1ncc2[nH]nc(-c3cnn(C)c3)c2n1 (centres unmarked) [Example 50, 3-Ethyl-8-(3-(1-methyl-1H-pyrazol-4-yl)-1H-pyrazolo[4,3-d]pyrimidin-5-yl)-3,8-diazabicyclo[3.2.1]octan-2-one] | 0.1 to 0.5 |  |  | 0.1 to 0.5 |  |  | < 0.1 | < 0.1 |  |  | 0.1 to 0.5 | 0.1 to 0.5 |  |  | 
CNC(=O)c1ccc(-n2cc(-c3n[nH]c4cnc(N5C6CCC5C(=O)N(C)C6)nc34)cn2)cc1F (centres unmarked) [Example 81, 2-Fluoro-N-methyl-4-(4-(5-(3-methyl-2-oxo-3,8-diazabicyclo[3.2.1]octan-8-yl)-1H-pyrazolo[4,3-d]pyrimidin-3-yl)-1H-pyrazol-1-yl)benzamide] | < 0.1 | < 0.1 | < 0.1 | < 0.1 | 0.5 to 2 | 0.5 to 2 | < 0.1 | < 0.1 |  |  |  |  |  |  | 
Cc1cc(-n2cc(-c3n[nH]c4cnc(N5C6CCC5C(=O)N(C)C6)nc34)cn2)ccc1C#N (centres unmarked) [Example 76, 2-Methyl-4-(4-(5-(3-methyl-2-oxo-3,8-diazabicyclo[3.2.1]octan-8-yl)-1H-pyrazolo[4,3-d]pyrimidin-3-yl)-1H-pyrazol-1-yl)benzonitrile] | < 0.1 | < 0.1 | < 0.1 | < 0.1 | 0.5 to 2 | 0.5 to 2 | < 0.1 | < 0.1 | < 0.1 |  |  |  |  |  | 
CN1CC2CCC(C1=O)N2c1ncc2[nH]nc(-c3cnn(C4CCC4)c3)c2n1 (single isomer, unassigned) [Example 64, 8-(3-(1-Cyclobutyl-1H-pyrazol-4-yl)-1H-pyrazolo[4,3-d]pyrimidin-5-yl)-3-methyl-3,8-diazabicyclo[3.2.1]octan-2-one] |  |  | < 0.1 |  | 0.1 to 0.5 | 0.5 to 2 | < 0.1 |  | < 0.1 |  |  |  |  |  | 
Cn1cc(-c2n[nH]c3cnc(N4C5CCC4c4cn[nH]c4C5)nc23)cn1 (centres unmarked) [Example 45, 9-(3-(1-Methyl-1H-pyrazol-4-yl)-1H-pyrazolo[4,3-d]pyrimidin-5-yl)-1,4,5,6,7,8-hexahydro-4,7-epiminocyclohepta[c]pyrazole] | 0.1 to 0.5 | < 0.1 |  | 0.1 to 0.5 | 0.5 to 2 | 0.5 to 2 | < 0.1 | < 0.1 | < 0.1 |  |  |  | 0.5 to 2 |  | 
CN1CC2CCC(C1=O)N2c1ncc2[nH]nc(-c3cnn(C)c3)c2n1 (centres unmarked) [Example 49, 3-Methyl-8-(3-(1-methyl-1H-pyrazol-4-yl)-1H-pyrazolo[4,3-d]pyrimidin-5-yl)-3,8-diazabicyclo[3.2.1]octan-2-one] | 0.1 to 0.5 | < 0.1 |  | < 0.1 | 0.5 to 2 |  | < 0.1 | < 0.1 | < 0.1 | > 2 |  |  | 0.5 to 2 |  | 
CN1CC2CCC(C1=O)N2c1ncc2[nH]nc(-c3cnn(-c4ccc(N(C)C)nc4)c3)c2n1 (centres unmarked) [Example 72, 8-(3-(1-(6-(Dimethylamino)pyridin-3-yl)-1H-pyrazol-4-yl)-1H-pyrazolo[4,3-d]pyrimidin-5-yl)-3-methyl-3,8-diazabicyclo[3.2.1]octan-2-one] | 0.1 to 0.5 | < 0.1 | < 0.1 | < 0.1 | 0.5 to 2 | 0.5 to 2 | < 0.1 | < 0.1 | < 0.1 |  |  |  |  |  | 
CN1CC2CCC(C1=O)N2c1ncc2[nH]nc(-c3cnn(-c4ccc(C#N)cc4)c3)c2n1 (centres unmarked) [Example 70, 4-(4-(5-(3-Methyl-2-oxo-3,8-diazabicyclo[3.2.1]octan-8-yl)-1H-pyrazolo[4,3-d]pyrimidin-3-yl)-1H-pyrazol-1-yl)benzonitrile] | < 0.1 | < 0.1 | < 0.1 | < 0.1 | 0.5 to 2 |  | < 0.1 | < 0.1 | < 0.1 | > 2 |  |  |  |  | 
CC(C)N1CC2CCC(C1=O)N2c1ncc2[nH]nc(-c3cnn(C)c3)c2n1 (centres unmarked) [Example 52, 3-Isopropyl-8-(3-(1-methyl-1H-pyrazol-4-yl)-1H-pyrazolo[4,3-d]pyrimidin-5-yl)-3,8-diazabicyclo[3.2.1]octan-2-one] | 0.1 to 0.5 |  |  | 0.1 to 0.5 |  |  | < 0.1 | < 0.1 |  |  | 0.1 to 0.5 | 0.1 to 0.5 |  |  | 
c1ccc2c(-c3cnn4cc(-c5ccc(N6CCNCC6)cc5)cnc34)ccnc2c1 [LDN-19318917] |  |  |  |  |  |  |  |  |  |  |  |  |  | significant inhibition | 
CN1CC2CCC(C1=O)N2c1ncc2[nH]nc(-c3cnn(C4CC4)c3)c2n1 (single isomer, unassigned) [Example 66, 8-(3-(1-Cyclopropyl-1H-pyrazol-4-yl)-1H-pyrazolo[4,3-d]pyrimidin-5-yl)-3-methyl-3,8-diazabicyclo[3.2.1]octan-2-one] |  |  |  |  |  |  |  |  |  |  |  |  |  |  | < 0.1

Reference: patent US11111247B2, “Pyrazolopyrimidine compounds and uses thereof” (Incyte Corporation, priority 2018, dated 2021)
